Measurements as given in ChEMBL document CHEMBL1201862, “PubChem BioAssay data set” (2004).
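A five-concentration, 48-hour dose response in 96-well plates underlies each endpoint, interpolated linearly between surrounding concentrations. GI50 = concentration required for 50% inhibition of growth.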 Calls of active or inactive are those of the source. Rule as the data show it: active = GI50 up to about 1.1 µM and inactive = higher.

Columns and labels:
Test in all cases: DTP human tumour cell line panel, 48 h
[1] = tested on: M19-MEL
[2] = tested on: KM-20L2
[3] = tested on: DMS-273
[4] = tested on: HOP-18
[5] = tested on: DMS-114
[6] = tested on: SNB-78
[7] = tested on: RXF 631
[8] = tested on: LXFL 529
[9] = tested on: XF498

Row | Structure (SMILES) | GI50 [1] | GI50 [2] | GI50 [3] | GI50 [4] | GI50 [5] | GI50 [6] | GI50 [7] | GI50 [8] | GI50 [9]
1 | CN(O)C(=S)c1ccccc1 | 1.19 µM (inactive) | 3.24 µM (inactive) | 0.893 µM (active) | > 100 µM (inactive) | 1.18 µM (inactive) | 6.43 µM (inactive) | 1.48 µM (inactive) | 0.379 µM (active) | 
2 | O=CN/C=C/c1ccccc1 | > 100 µM (inactive) | > 100 µM (inactive) | > 100 µM (inactive) | > 100 µM (inactive) |  | > 100 µM (inactive) | > 100 µM (inactive) | > 100 µM (inactive) | 
3 | COc1cccc2c1C1(O)C2CCCC12OCCCO2 (stereo not given) | > 100 µM (inactive) | > 100 µM (inactive) | > 100 µM (inactive) | > 100 µM (inactive) | > 100 µM (inactive) | > 100 µM (inactive) |  | > 100 µM (inactive) | 
4 | O=c1nc(-c2ccccc2)c2c3c(cccn13)CCC2 | > 100 µM (inactive) |  | > 100 µM (inactive) |  | > 100 µM (inactive) | > 100 µM (inactive) |  | > 100 µM (inactive) | > 100 µM (inactive)
5 | Cc1cccc(/C=N/N=C(\N)NO)n1 | 68.7 µM (inactive) |  | 35.7 µM (inactive) |  | 12.1 µM (inactive) | > 100 µM (inactive) | > 100 µM (inactive) | 6.52 µM (inactive) | 39.4 µM (inactive)
6 | Nc1ccccc1/C(O)=C1/CCOC1=O | > 100 µM (inactive) |  |  |  | > 100 µM (inactive) | > 100 µM (inactive) |  | > 100 µM (inactive) | > 100 µM (inactive)
7 | O=[N+]([O-])C=C1c2ccccc2-c2ccccc21 |  | 19.1 µM (inactive) |  |  |  | 17.4 µM (inactive) |  | 14.9 µM (inactive) | 
8 | COc1ccc(C(O)C(c2ccc(OCc3ccccc3)cc2)c2ccc(OCc3ccccc3)cc2)cc1 (stereo not given) | > 100 µM (inactive) | > 100 µM (inactive) | > 100 µM (inactive) |  | > 100 µM (inactive) | > 100 µM (inactive) |  | > 100 µM (inactive) | > 100 µM (inactive)
9 | CCC(C)CN1C(=O)NC(C)(Cc2ccccc2)C1=O (stereo not given) | > 100 µM (inactive) | > 100 µM (inactive) | > 100 µM (inactive) | > 100 µM (inactive) | > 100 µM (inactive) | > 100 µM (inactive) |  | > 100 µM (inactive) | > 100 µM (inactive)
10 | O=C(CCCC(=O)Nc1ccc(Cl)cc1Cl)CC(=O)c1ccc2ccccc2c1 | > 100 µM (inactive) | > 100 µM (inactive) | > 100 µM (inactive) | > 100 µM (inactive) | > 100 µM (inactive) | > 100 µM (inactive) | > 100 µM (inactive) | > 100 µM (inactive) | 
11 | Oc1ncnc2c1nnn2CCCn1nnc2c(O)ncnc21 | > 100 µM (inactive) | > 100 µM (inactive) | > 100 µM (inactive) | > 100 µM (inactive) | > 100 µM (inactive) | > 100 µM (inactive) |  | > 100 µM (inactive) | > 100 µM (inactive)
12 | CC1=NN(C(=O)c2ccc([N+](=O)[O-])cc2)C(=O)C1/N=N/c1ccccc1C(=O)O (stereo not given) | > 100 µM (inactive) |  | > 100 µM (inactive) |  | > 100 µM (inactive) | > 100 µM (inactive) |  | > 100 µM (inactive) | 
13 | O=C(CCCCCCCCCCc1ccccc1)C1=C(O)CCCC1=O | 32.7 µM (inactive) | 32.4 µM (inactive) | 20.5 µM (inactive) | 38.6 µM (inactive) | 18.6 µM (inactive) | 52.4 µM (inactive) |  | 32.2 µM (inactive) | 42.5 µM (inactive)
14 | O=C(O/N=C1/CCC/C1=C\c1ccccc1)c1ccc(Cl)cc1 | > 100 µM (inactive) | > 100 µM (inactive) | > 76.9 µM (inactive) | > 100 µM (inactive) |  | 32.8 µM (inactive) |  | 47.4 µM (inactive) | 61.5 µM (inactive)
15 | CN1c2ccccc2NC(CC(=O)O)C2CC=CN21 (stereo not given) | > 100 µM (inactive) | > 100 µM (inactive) | > 100 µM (inactive) | 0.117 µM (active) | > 100 µM (inactive) |  | > 100 µM (inactive) | > 100 µM (inactive) | > 100 µM (inactive)
16 | Cc1cc(-c2ccccc2)nc(Nc2cc3ccccc3[nH]2)n1 | > 100 µM (inactive) | > 100 µM (inactive) |  |  | > 100 µM (inactive) | > 100 µM (inactive) |  | > 100 µM (inactive) | > 100 µM (inactive)
17 | N=C(c1ccccc1)N(O)C1CCCCC1 | > 100 µM (inactive) | > 100 µM (inactive) | > 100 µM (inactive) | > 100 µM (inactive) | > 100 µM (inactive) | > 100 µM (inactive) |  | > 100 µM (inactive) | 
18 | COc1cc(C(C)O)c[n+](Cc2ccccc2)c1 (stereo not given) | > 100 µM (inactive) | > 100 µM (inactive) | > 100 µM (inactive) | > 100 µM (inactive) | > 100 µM (inactive) | > 100 µM (inactive) | > 100 µM (inactive) | > 100 µM (inactive) | > 31.6 µM (inactive)
19 | O=C(CC1(O)C(=O)Nc2ccccc21)c1ccc(O)cc1 (stereo not given) | 70.1 µM (inactive) | > 100 µM (inactive) | > 100 µM (inactive) | > 100 µM (inactive) | > 100 µM (inactive) | > 100 µM (inactive) | > 100 µM (inactive) | > 100 µM (inactive) | 
20 | O=C(CC(=O)N1N=C(c2ccccc2)C(/N=N/c2ccc(C(=O)O)cc2)C1=O)Nc1ccc(F)cc1 (stereo not given) | 74 µM (inactive) | 46.5 µM (inactive) | 27.2 µM (inactive) |  | 34.5 µM (inactive) | 42.8 µM (inactive) | 36.4 µM (inactive) | 23.5 µM (inactive) | 20.4 µM (inactive)
21 | O=C1c2ccccc2C(=O)c2c1ccc1c3ccccc3n(-c3ccccc3)c21 | 18.8 µM (inactive) | 21.5 µM (inactive) | 18.6 µM (inactive) | 14.5 µM (inactive) |  | 21.1 µM (inactive) | 7.94 µM (inactive) | 16.8 µM (inactive) | 
22 | O=[N+]([O-])c1nccn1COCCO |  | > 100 µM (inactive) | > 100 µM (inactive) | 28.1 µM (inactive) | > 100 µM (inactive) | > 100 µM (inactive) | > 100 µM (inactive) | > 100 µM (inactive) | > 100 µM (inactive)
23 | Cc1cccc(C(C)(C)C)c1NC(=O)CC1C(=O)Nc2ccccc2[S+]1[O-] (stereo not given) |  | 57.5 µM (inactive) | 38.1 µM (inactive) |  |  | 54.6 µM (inactive) | 70.3 µM (inactive) | 37.8 µM (inactive) | 68.9 µM (inactive)
24 | COc1ccc(Cc2cc3c(cc2OCC(=O)O)OCO3)cc1 | > 100 µM (inactive) | > 100 µM (inactive) |  |  | > 100 µM (inactive) |  | > 100 µM (inactive) |  | 
25 | CCCCSC(=CC(=O)c1cccc(C(=O)C=C(SCCCC)SCCCC)n1)SCCCC | > 100 µM (inactive) | > 100 µM (inactive) | > 100 µM (inactive) | > 100 µM (inactive) | > 100 µM (inactive) | > 100 µM (inactive) |  | > 100 µM (inactive) | > 100 µM (inactive)
26 | COC(=O)c1c(C(=O)OC)c(-c2ccccc2)n(-c2ccccc2)c(=O)c1-c1ccccc1 | 92.3 µM (inactive) | > 100 µM (inactive) | 87.7 µM (inactive) |  | 74.1 µM (inactive) | 54.7 µM (inactive) |  | > 100 µM (inactive) | 23.1 µM (inactive)
